“Also recorded” adds a separate entry of the source.
How the values were obtained:
cell membranes = assay: Cell permeation of donor fluorophore
holo carbonic anhydrase = holo carbonic anhydrase (Homo sapiens, UniProt P00918); details: read-out: Kd of binding to holoprotein; cited from earlier work

SMILES: CN(C)c1ccc(-c2cnc(-c3ccc(S(N)(=O)=O)cc3)o2)cc1 [Dapoxyl sulfonamide]
- cell permeability (cell membranes): readily penetrates cell membranes; also recorded: rapidly cell-permeant
- Kd (holo carbonic anhydrase): 200 nM
